US20110059526A1, “REPROGRAMMING A CELL BY INDUCING A PLURIPOTENT GENE THROUGH USE OF AN HDAC MODULATOR” (NUPOTENTIAL, INC., priority 2008, published 2011)
Structures can show the parent of a compound that is named as a salt.

How the values were obtained:
[1] = test system: Oct-4 gene expression, adult human dermal fibroblasts (HDFa); assay: Small molecules, Oct-4 gene expression by qRT-PCR (Table III), HDFa; type: cell-based
Description: (§1) Cell culture. Human dermal fibroblasts were purchased from Cell Applications (San Diego, Calif.), and were maintained at 37° C. in 95% humidity and 5% CO2 in Fibroblast growth medium (Cell Applications, San Diego, Calif.).
(§2) Quantitative RT-PCR. Expression of Oct-4 was determined by real-time RT-PCR. Briefly, total RNA was prepared from cultures using Trizol Reagent (Life Technologies, Gaithersburg, Md.) and RNeasy Mini kit (Qiagen; Valencia, Calif.) with DNase I digestion according to manufacturer's protocol. Total RNA (1 μg) from each sample was subjected to oligo(dT)-primed reverse transcription (Invitrogen; Carlsbad, Calif.). Real-time PCR reactions will be performed with PCR master mix on a 7300 real-time PCR system (Applied Biosystems; Foster City, Calif.). For each sample, 1 μl of diluted cDNA (1:10) will be added as template in PCR reactions. The expression level of Cot-4 was normalized to glyceraldehyde 3-phosphate-dehydrogenase (GAPD).
The abbreviations are as follows: HDACi (histone deacetylase inhibitor DNMTi (DNA methyltransferase inhibitor); SIRTi (sirtuin, Class III HDAC inhibitor); LdeMi (lysine demethylase inhibitor); SIRT1a (sirtuin 1 activator); TSAi (trichostatin A inhibitor); HDMi/LSD1i (histone demethylase inhibitor/Lysine demethylase 1 inhibitor).

[2] = test system: Oct-4 gene expression, BJF cells; assay: Small molecules, Oct-4 gene expression by qRT-PCR (Table III), BJF; type: cell-based, human
Description: as §1, §2
Table III provides the effects of small molecule inhibitors on Oct-4 gene expression in human somatic cells. mRNA levels were determined by real time qRT-PCR and normalized with GAPDH. The abbreviations are as follows: HDACi (histone deacetylase inhibitor DNMTi (DNA methyltransferase inhibitor); SIRTi (sirtuin, Class III HDAC inhibitor); LdeMi (lysine demethylase inhibitor); SIRT1a (sirtuin 1 activator); TSAi (trichostatin A inhibitor); HDMi/LSD1i (histone demethylase inhibitor/Lysine demethylase 1 inhibitor).

[3] = test system: Oct-4 protein, fetal human dermal fibroblasts (HDFf); assay: Immunohistochemistry of Oct-4 protein in shRNA-infected cells; type: cell-based; conditions: versus uninfected control
Description: Cell culture. Fetal human dermal fibroblasts were purchased from Cell Applications (San Diego, Calif.), and were maintained at 37° C. in 95% humidity and 5% CO2 in Fibroblast growth medium (Cell Applications, San Diego, Calif.).
Lentiviral Infection. Fetal human dermal fibroblasts were infected with one of the following compositions: (1) shRNA lentivirus directed to DNMT1; (2) shRNA lentivirus directed toward HDAC7; (3) shRNA lentivirus directed toward DNMT1 and HDAC7; and (4) shRNA lentivirus directed toward HDAC7a and HDAC11. The shRNA construct was obtained from Dharmacon. The shRNA construct directed toward HDAC7a had the following sequence:
(§3) The human dermal fibroblasts were infected with the shRNA following the manufacturer's instructions. HDF were cultured with an without puromycin selection and hES culture conditions (mTeSR Medium, Stem Cell Technology, Vancouver, BC, Canada) on matrigel (BD Biosciences, San Jose Calif.).
Immunohistochemistry. For immunohistochemistry, target shRNA-infected and control cells were grown on chambered slides (LabTek, Napersville, Ill.). Cells were then be fixed with 4% paraformaldehyde, and incubated with a specific antibody directed against pluripotency marker Oct3/4 (Abeam, Cambridge, Mass.) following the manufacturer's protocol. Staining of Oct3/4 was visualized as a red color. […]

[4] = test system: Sox-2 protein, fetal human dermal fibroblasts (HDFf); assay: Immunohistochemistry of Sox-2 protein in shRNA-infected cells; type: cell-based; conditions: versus uninfected control
[5] = test system: HDAC genes and SIRT genes mRNA, human dermal fibroblasts; assay: HDAC7 shRNA lentiviral infection, RT-PCR of HDAC and SIRT genes (FIG. 7); type: cell-based
Source text: (§4) Human dermal fibroblasts (HDFa, HDFn, and HDFf) were infected with shRNA lentivirus to interfere with HDAC7. In a separate set of experiments, human dermal fibroblasts (HDFa, HDFn, and HDFf) were infected with shRNA lentivirus to interfere with HDAC11. RNA was isolated from HDFs (including puromycin selection) and applied to RT-PCR to analyze expression of target genes, e.g., Oct-4, Nanog, Sox2, various HDACs and various SIRT genes. The shRNA construct included puromycin (antibiotic) resistance as a way to select cells that have been successfully transfected with the shRNA. After transfection, puromycin was added to the culture and cells that were not resistant (therefore not transfected) died, thereby leaving only transfected cells remaining in the culture.
as §1
(§5) Lentiviral Infection. Human dermal fibroblasts were infected with a shRNA construct. The shRNA construct was obtained from Dharmacon. The shRNA construct directed toward directed toward HDAC7a had the following sequence:
The human dermal fibroblasts were infected with the shRNA following the manufacturer's instructions. […]
Quantitative RT-PCR. Expression of Oct-3/4 and Nanog was determined by real-time RT-PCR. […]

[6] = test system: Oct-4, Nanog, Sox-2 mRNA, human dermal fibroblasts (HDFa, HDFn, HDFf); assay: HDAC7 or HDAC11 shRNA lentiviral infection, RT-PCR of Oct-4, Nanog, Sox-2 mRNA; type: cell-based
Source text: as §4, §1, §5
The human dermal fibroblasts were infected with the shRNA following the manufacturer's instructions. HDF were cultured with an without puromycin selection and hES culture conditions (mTeSR Medium, Stem Cell Technology, Vancouver, BC, Canada) on matrigel (BD Biosciences, San Jose Calif.). In these sets of experiments, cells were infected with a shRNA construct directed toward either HDAC7, or HDAC11.
as §2, with “Oct-3/4 and Nanog” for “Oct-4”, “DNase” for “DNase I”, “Oct-3/4 and Nanog” for “Cot-4”

[7] = test system: HDAC7a and HDAC11 expression, human dermal fibroblasts (HDFa, HDFn, HDFf); assay: HDAC7a shRNA effect on expression of HDAC7a and HDAC11, RT-PCR; type: cell-based
Description: as §1
Lentiviral Infection. Human dermal fibroblasts were infected with a shRNA construct. The shRNA construct was obtained from Dharmacon. The shRNA construct directed toward HDAC7a had the following sequence:
as §3
as §2, with “HDAC7a and HDAC11” for “Oct-4”, “The expression level of Cot-4 was normalized to glyceraldehyde 3-phosphate-dehydrogenase (GAPD).” left out

[8] = test system: Oct-4 gene expression, HLFa; assay: Small molecules, Oct-4 gene expression by qRT-PCR (Table III), HLFa; type: cell-based, human; conditions: dose 500 uM, Rx Time 5

How did the “Oct4 FC” value ([1]; dose 2.5 mM, Rx Time 4) turn out when Na Phenylbutyrate was run?
The value was 2.5.

How did the “Oct4 FC” value ([1]; dose .5 mM, Rx Time 4) turn out when Valproxam was run?
Its value is <2.

For O=C(c1ccc(Cl)cc1Cl)n1nnc2ccccc21 [ITSA], which “Oct4 FC” value ([1]; dose .05 mM, Rx Time 4) is on record?
Its value is <2.

Which “Oct4 FC” value ([1]; dose 2.5 mM, Rx Time 4) does the source give for N[C@@H]1C[C@H]1c1ccccc1 [Tranylcypromine] here?
Its value is 2.7.

Which “Oct4 FC” value ([2]; dose .05 mM, Rx Time 7) does the source give for CC(NC(=O)c1ccccc1/N=C/c1c(O)ccc2ccccc12)c1ccccc1 (centres unmarked) [Sirtinol] here?
The value was <2.

COCCCn1c(N)c(C(=O)NC2CCCC2)c2nc3ccccc3nc21 [SIRT1 Activator 3] was tested. Which “Oct4 FC” value ([1]; dose 500 uM, Rx Time 4) did it give?
The value was 2.

How did the “Oct4 FC” value ([2]; dose .5 mM, Rx Time 4) turn out when Oc1ccc(C=Cc2cc(O)cc(O)c2)cc1 [Resveratrol] was run?
Its value is <2.

How did the “Oct4 FC” value ([2]; dose 1.5 mM, Rx Time 7) turn out when O=C(NCCSSCCNC(=O)/C(Cc1ccc(O)c(Br)c1)=N/O)/C(Cc1ccc(O)c(Br)c1)=N/O [Psammaplin-A] was run?
Its value is 2.2.

For NC(=O)c1cccnc1 [Nicotinamide], which “Oct4 FC” value ([1]; dose .028 mM, Rx Time 4) is on record?
The value was 2.3.

How did the “Oct4 FC” value ([1]; dose 500 uM, Rx Time 2) turn out when NNc1nncc2ccccc12 [Hydralazine HCL] was run?
Its value is <2.

For O=C(O)CCCCC1CCSS1 (stereo not drawn) [ALA, Alpha-lipoic acid], which “Oct4 FC” value ([1]; dose 50 uM, Rx Time 4) is on record?
The value was 3.5.

How did the “Oct4 FC” value ([2]; dose 2.5 mM, Rx Time 4) turn out when Cn1cc(C2=C(c3cn(CCCSC(=N)N)c4ccccc34)C(=O)NC2=O)c2ccccc21 [RO-31-8220] was run?
Its value is <2.

With NC(=O)C1CCCc2c1[nH]c1ccc(Cl)cc21 (centres unmarked) [EX-527] as the compound, how does the “Oct4 FC” value ([1]; dose 50 uM, Rx Time 4) read?
Its value is 2.

Which results are given for “DNMT1 shRNA: shRNA construct directed toward DNMT1, SEQ ID NO. 4: GTCTACCAGATCTTCGATA (listed as Homo Sapiens)”?
Oct-4 protein expression [3]: clearly increased; Sox-2 protein expression [4]: only a modest amount

Which “Oct4 FC” value ([1]; dose 50 uM, Rx Time 4) does the source give for Nc1ccccc1NC(=O)CCCCCCC(=O)Nc1ccccc1 [CAY 10433] here?
Its value is <2.

For NC1CC1c1ccccc1 (centres unmarked) [2-PCPA], which “Oct4 FC” value ([2]; dose 1 mM, Rx Time 8) is on record?
The value was <2.

Which “Oct4 FC” value ([2]; dose .05 mM, Rx Time 6) does the source give for O=c1ncccn1[C@@H]1O[C@H](CO)[C@@H](O)[C@H]1O [Zebularine] here?
The value was <2.

With O=C1CCc2c(ccc3ccccc23)O1 [Splitomycin] as the compound, how does the “Oct4 FC” value ([1]; dose .5 mM, Rx Time 4) read?
Its value is 2.

For O=C(O)CCCC[C@@H]1SC[C@@H]2NC(=O)N[C@@H]21 [Biotin], which “Oct4 FC” value ([1]; dose 500 uM, Rx Time 4) is on record?
Its value is <2.

With “HDAC7 shRNA: shRNA lentiviral construct from Dharmacon directed toward HDAC7a, SEQ ID NO. 1: GCTTTCAGGATAGTCGTGA (shRNA lentiviral construct)” as the compound, how does the “level of HDAC7 mRNA reduced” value ([5]; around three days after lentiviral infection) read?
Its value is “about 50 % of basal level”.

And the “expression of HDAC 9, HDAC5 and HDAC11 mRNA” value ([5]; three days after HDAC7 shRNA infection)?
The value was “inducted”.

What about the Oct-4 protein expression [3] of the same compound?
The Oct-4 protein expression was “minimal detection”.

What about the “level of mRNA for the gene Oct-4” value ([6]; HDFa and HDFn, presence and absence of puromycin, compared to Nanog) of the same compound?
Its value is “more modest increase”.

And the “expression of Nanog increased over time” value ([6]; HDFa and HDFn, with and without puromycin selection)?
Its value is “at least six-fold”.

And the “level of mRNA for the gene Nanog” value ([6]; HDFa, HDFn and HDFf, presence and absence of puromycin)?
Its value is “increased”.

What about the “level of mRNA for the gene Nanog” value ([6]; HDFf, compared with HDFa and HDFn) of the same compound?
Its value is “not as robustly”.

What about the “level of mRNA for the Sox-2 gene” value ([6]; fetal human dermal fibroblasts (HDFf)) of the same compound?
The value was “No induction”.

What about the “expression of HDAC7a” value [7] of the same compound?
Its value is “decreased”.

What about the “expression of HDAC11” value ([7]; presence and absence of puromycin) of the same compound?
The value was “increased”.

What about the Sox-2 protein expression [4] of the same compound?
The Sox-2 protein expression was “minimal protein expression”.

How did the “Oct4 FC” value ([2]; dose 1 uM, Rx Time 4) turn out when O=C(O[C@@H]1Cc2c(O)cc(O)cc2O[C@@H]1c1cc(O)c(O)c(O)c1)c1cc(O)c(O)c(O)c1 [EGCG] was run?
The value was <2.

How did the “Oct4 FC” value ([1]; dose 500 uM, Rx Time 8) turn out when CCN(CC)CCOC(=O)c1ccc(N)cc1 [Procaine HCL] was run?
The value was <2.

Which “Oct4 FC” value ([1]; dose 50 uM, Rx Time 4) does the source give for Depudecin here?
The value was <2.

For O=C(O)C(Cc1c[nH]c2ccccc12)N1C(=O)c2ccccc2C1=O (centres unmarked) [RG108], which “Oct4 FC” value [8] is on record?
Its value is <2.
